# Assay results: ChEMBL document CHEMBL1153245, “A profile of the in vitro anti-tumor activity of imidazolium-based ionic liquids” (2010)
# Key:
# Type in all cases: functional
# ACHN = test: Anticancer activity against human ACHN cells assessed cell growth at 10 uM after 48 hrs by sulforhodamine B assay relative to control
# CAKI-1 = test: Anticancer activity against human Caki1 cells assessed cell growth at 10 uM after 48 hrs by sulforhodamine B assay relative to control
# RXF 393 = test: Anticancer activity against human RXF393 cells assessed cell growth at 10 uM after 48 hrs by sulforhodamine B assay relative to control
# TK-10 = test: Anticancer activity against human TK10 cells assessed cell growth at 10 uM after 48 hrs by sulforhodamine B assay relative to control
# UO-31 = test: Anticancer activity against human UO31 cells assessed cell growth at 10 uM after 48 hrs by sulforhodamine B assay relative to control
# PC-3 = test: Anticancer activity against human PC3 cells assessed cell growth at 10 uM after 48 hrs by sulforhodamine B assay relative to control
# DU-145 = test: Anticancer activity against human DU145 cells assessed cell growth at 10 uM after 48 hrs by sulforhodamine B assay relative to control
# MCF7 = test: Anticancer activity against human MCF7 cells assessed cell growth at 10 uM after 48 hrs by sulforhodamine B assay relative to control
# NCI/ADR-RES = test: Anticancer activity against human NCI/ADR-RES cells assessed cell growth at 10 uM after 48 hrs by sulforhodamine B assay relative to control
# MDA-MB-231 = test: Anticancer activity against human MDA-MB-231 cells assessed cell growth at 10 uM after 48 hrs by sulforhodamine B assay relative to control
# MDA-MB-435 = test: Anticancer activity against human MDA-MB-435 cells assessed cell growth at 10 uM after 48 hrs by sulforhodamine B assay relative to control
# T47D = test: Anticancer activity against human T47D cells assessed cell growth at 10 uM after 48 hrs by sulforhodamine B assay relative to control
# MDA-MB-468 = test: Anticancer activity against human MDA-MB-468 cells assessed cell growth at 10 uM after 48 hrs by sulforhodamine B assay relative to control
# K562 = test: Anticancer activity against human K562 cells assessed cell growth at 10 uM after 48 hrs by sulforhodamine B assay relative to control
# [1] = Anticancer activity against human RPMI8266 cells assessed cell growth at 10 uM after 48 hrs by sulforhodamine B assay relative to control
# SR = test: Anticancer activity against human SR cells assessed cell growth at 10 uM after 48 hrs by sulforhodamine B assay relative to control
# HOP-62 = test: Anticancer activity against human HOP62 cells assessed cell growth at 10 uM after 48 hrs by sulforhodamine B assay relative to control
# HOP-92 = test: Anticancer activity against human HOP92 cells assessed cell growth at 10 uM after 48 hrs by sulforhodamine B assay relative to control
# NCI-H226 = test: Anticancer activity against human NCI-H226 cells assessed cell growth at 10 uM after 48 hrs by sulforhodamine B assay relative to control
# NCI-H23 = test: Anticancer activity against human NCI-H23 cells assessed cell growth at 10 uM after 48 hrs by sulforhodamine B assay relative to control
# NCI-H460 = test: Anticancer activity against human NCI-H460 cells assessed cell growth at 10 uM after 48 hrs by sulforhodamine B assay relative to control
# NCI-H522 = test: Anticancer activity against human NCI-H522 cells assessed cell growth at 10 uM after 48 hrs by sulforhodamine B assay relative to control
# HCC 2998 = test: Anticancer activity against human HCC2998 cells assessed cell growth at 10 uM after 48 hrs by sulforhodamine B assay relative to control
# HCT-116 = test: Anticancer activity against human HCT116 cells assessed cell growth at 10 uM after 48 hrs by sulforhodamine B assay relative to control
# HT-29 = test: Anticancer activity against human HT-29 cells assessed cell growth at 10 uM after 48 hrs by sulforhodamine B assay relative to control
# SW-620 = test: Anticancer activity against human SW620 cells assessed cell growth at 10 uM after 48 hrs by sulforhodamine B assay relative to control
# SF-268 = test: Anticancer activity against human SF268 cells assessed cell growth at 10 uM after 48 hrs by sulforhodamine B assay relative to control
# SNB-19 = test: Anticancer activity against human SNB19 cells assessed cell growth at 10 uM after 48 hrs by sulforhodamine B assay relative to control
# SNB-75 = test: Anticancer activity against human SNB75 cells assessed cell growth at 10 uM after 48 hrs by sulforhodamine B assay relative to control
# LOX IMVI = test: Anticancer activity against human LOXIMVI cells assessed cell growth at 10 uM after 48 hrs by sulforhodamine B assay relative to control
# Malme-3M = test: Anticancer activity against human MALME-3M cells assessed cell growth at 10 uM after 48 hrs by sulforhodamine B assay relative to control
# M14 = test: Anticancer activity against human M14 cells assessed cell growth at 10 uM after 48 hrs by sulforhodamine B assay relative to control
# SK-MEL-2 = test: Anticancer activity against human SK-MEL-2 cells assessed cell growth at 10 uM after 48 hrs by sulforhodamine B assay relative to control
# SK-MEL-28 = test: Anticancer activity against human SK-MEL-28 cells assessed cell growth at 10 uM after 48 hrs by sulforhodamine B assay relative to control
# SK-MEL-5 = test: Anticancer activity against human SK-MEL-5 cells assessed cell growth at 10 uM after 48 hrs by sulforhodamine B assay relative to control
# UACC-257 = test: Anticancer activity against human UACC257 cells assessed cell growth at 10 uM after 48 hrs by sulforhodamine B assay relative to control
# UACC-62 = test: Anticancer activity against human UACC62 cells assessed cell growth at 10 uM after 48 hrs by sulforhodamine B assay relative to control
# IGROV-1 = test: Anticancer activity against human IGROV1 cells assessed cell growth at 10 uM after 48 hrs by sulforhodamine B assay relative to control
# OVCAR-4 = test: Anticancer activity against human OVCAR4 cells assessed cell growth at 10 uM after 48 hrs by sulforhodamine B assay relative to control
# OVCAR-5 = test: Anticancer activity against human OVCAR5 cells assessed cell growth at 10 uM after 48 hrs by sulforhodamine B assay relative to control
# SK-OV-3 = test: Anticancer activity against human SKOV3 cells assessed cell growth at 10 uM after 48 hrs by sulforhodamine B assay relative to control
# HL-60(TB) = test: Anticancer activity against human HL-60(TB) cells assessed cell growth at 10 uM after 48 hrs by sulforhodamine B assay relative to control
# CCRF-CEM = test: Anticancer activity against human CCRF-CEM cells assessed cell growth at 10 uM after 48 hrs by sulforhodamine B assay relative to control
smiles,measurement,setting,value
CCCCCCCCCCCCCCCCCC[n+]1ccn(C)c1.[Cl-],Activity,ACHN,-12.35%
same,Activity,CAKI-1,-67.34%
same,Activity,RXF 393,-28.27%
same,Activity,TK-10,-70.24%
same,Activity,UO-31,-61.43%
same,Activity,PC-3,-54.01%
same,Activity,DU-145,-7.74%
same,Activity,MCF7,-33.81%
same,Activity,NCI/ADR-RES,20.86%
same,Activity,MDA-MB-231,-66.25%
same,Activity,MDA-MB-435,-56.4%
same,Activity,T47D,35.89%
same,Activity,MDA-MB-468,-42.33%
same,Activity,K562,28.31%
same,Activity,[1],93.78%
same,Activity,SR,4.33%
same,Activity,HOP-62,-58.64%
same,Activity,HOP-92,-51.3%
same,Activity,NCI-H226,-54.04%
same,Activity,NCI-H23,-48.94%
same,Activity,NCI-H460,-62.94%
same,Activity,NCI-H522,-74.88%
same,Activity,HCC 2998,-80.71%
same,Activity,HCT-116,-18.25%
same,Activity,HT-29,-42.14%
same,Activity,SW-620,-45.24%
same,Activity,SF-268,-45.4%
same,Activity,SNB-19,-47.53%
same,Activity,SNB-75,-74.36%
same,Activity,LOX IMVI,0.13%
same,Activity,Malme-3M,-62.43%
same,Activity,M14,-33.7%
same,Activity,SK-MEL-2,-61.28%
same,Activity,SK-MEL-28,-49.38%
same,Activity,SK-MEL-5,-81.11%
same,Activity,UACC-257,-38%
same,Activity,UACC-62,-70.86%
same,Activity,IGROV-1,-43.92%
same,Activity,OVCAR-4,-19.32%
same,Activity,OVCAR-5,-61.54%
same,Activity,SK-OV-3,4.83%
same,Activity,HL-60(TB),3.76%
same,Activity,CCRF-CEM,34.04%
CCCCCCCCCCCCCCCCCC[n+]1ccn(C)c1.FC(F)(F)C(F)(F)[P-](F)(F)(F)(C(F)(F)C(F)(F)F)C(F)(F)C(F)(F)F,Activity,ACHN,-53.6%
same,Activity,CAKI-1,-71.63%
same,Activity,RXF 393,-44.46%
same,Activity,TK-10,-60.38%
same,Activity,UO-31,-55.23%
same,Activity,PC-3,-57.75%
same,Activity,DU-145,7.06%
same,Activity,MCF7,2.61%
same,Activity,NCI/ADR-RES,-50.87%
same,Activity,MDA-MB-231,-73.64%
same,Activity,MDA-MB-435,-52.89%
same,Activity,T47D,32.25%
same,Activity,MDA-MB-468,5.93%
same,Activity,K562,26.87%
same,Activity,[1],49.96%
same,Activity,SR,24.53%
same,Activity,HOP-62,-79.75%
same,Activity,HOP-92,-39.5%
same,Activity,NCI-H226,-58.27%
same,Activity,NCI-H23,-62.26%
same,Activity,NCI-H460,-53.73%
same,Activity,NCI-H522,-63.43%
same,Activity,HCC 2998,-80.57%
same,Activity,HCT-116,-57.3%
same,Activity,HT-29,-41.19%
same,Activity,SW-620,-25.6%
same,Activity,SF-268,-47.08%
same,Activity,SNB-19,-34.47%
same,Activity,SNB-75,-47.53%
same,Activity,LOX IMVI,-25.56%
same,Activity,Malme-3M,-51.72%
same,Activity,M14,-26.94%
same,Activity,SK-MEL-2,-54.7%
same,Activity,SK-MEL-28,-45.82%
same,Activity,SK-MEL-5,-77.4%
same,Activity,UACC-257,-53.5%
same,Activity,UACC-62,-73.94%
same,Activity,IGROV-1,-30.94%
same,Activity,OVCAR-4,-18.12%
same,Activity,OVCAR-5,-56.76%
same,Activity,SK-OV-3,10.45%
same,Activity,HL-60(TB),15.34%
same,Activity,CCRF-CEM,35.34%
CCCCCCCC[n+]1ccn(C)c1.[Cl-],Activity,ACHN,75.93%
same,Activity,CAKI-1,66.65%
same,Activity,RXF 393,78.03%
same,Activity,TK-10,77.56%
same,Activity,UO-31,85.09%
same,Activity,PC-3,97.45%
same,Activity,DU-145,99.82%
same,Activity,MCF7,79.81%
same,Activity,NCI/ADR-RES,95.09%
same,Activity,MDA-MB-231,74.81%
same,Activity,MDA-MB-435,70.46%
same,Activity,T47D,87.08%
same,Activity,MDA-MB-468,46.81%
same,Activity,K562,63.96%
same,Activity,[1],122.18%
same,Activity,SR,88.57%
same,Activity,HOP-62,90.78%
same,Activity,HOP-92,106.43%
same,Activity,NCI-H226,75.79%
same,Activity,NCI-H23,62.26%
same,Activity,NCI-H460,101.53%
same,Activity,NCI-H522,72.78%
same,Activity,HCC 2998,77.19%
same,Activity,HCT-116,62.3%
same,Activity,HT-29,69.97%
same,Activity,SW-620,89.37%
same,Activity,SF-268,95.77%
same,Activity,SNB-19,91.91%
same,Activity,SNB-75,83.9%
same,Activity,LOX IMVI,71.93%
same,Activity,Malme-3M,80.97%
same,Activity,M14,87.47%
same,Activity,SK-MEL-2,85.11%
same,Activity,SK-MEL-28,120.13%
same,Activity,SK-MEL-5,86.81%
same,Activity,UACC-257,83.24%
same,Activity,UACC-62,81.12%
same,Activity,IGROV-1,96.33%
same,Activity,OVCAR-4,61.98%
same,Activity,OVCAR-5,101.85%
same,Activity,SK-OV-3,98.42%
same,Activity,HL-60(TB),94.06%
same,Activity,CCRF-CEM,121.49%
